pIC50: −log10 of the molar value.
Experiments:
human AT1R = human AT1R (Homo sapiens (Human), UniProt P30556); test: Counterscreen radioligand binding assay, displacement of 125I-[Sar1, Ile8]-Angiotensin II, hAT1R WT; conditions: for inhibition at 1 µM / inhibition at 10 µM: 125I-[Sar1, Ile8]-Ang II, semi-quantitative score; for inhibition at 1 µM: compound at 1 μM, read-out: % Displaced radioligand at 1 μM; for inhibition at 10 µM: compound at 10 μM, read-out: % Displaced radioligand at 10 μM; for pIC50: HEK-293 cell membranes, read-out: Binding affinity On hAT1R IC50
In short: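 Membranes from HEK-293 cells expressing human AT1R were incubated for one hour at 25° C, pH 7.4, with 0.05 nM radiolabelled [Sar1, Ile8]-Ang II and test ligand. Bound radioactivity was collected on PEI-soaked filters, with 10 μM unlabelled [Sar1]-Ang II defining non-specific binding. Results are percent displacement at 1 μM and […], or IC50 from eight-point duplicate curves.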

human AT2R fused to Cb23 = human AT2R fused to Cb23 (Homo sapiens, UniProt P50052); test: Radioligand binding assay, displacement of 125I-[Sar1, Ile8]-Angiotensin II, hAT2R Cb23; conditions: displacement of 125I-[Sar1, Ile8]-Angiotensin II, human AT2R fused to Cb23, HEK-293 cell membrane preparations; read-out: Binding affinity on hAT2R_Cb23 IC50
In short: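 Membranes from HEK-293 cells expressing human AT2R fused to Cb23 were incubated with 0.05 nM 125I-[Sar1, Ile8]-Angiotensin II in 100 μL buffer (50 mM Tris, 5 mM MgCl2, 1 mM EDTA, 0.1% BSA, pH 7.4) for one hour at 25° C. Ligands were tested as eight-point dose-response curves in duplicate, with C21 and Angiotensin II as references.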

Sequence of human AT2R fused to Cb23 (P50052 whole entry, looked up, the tested form may be a part): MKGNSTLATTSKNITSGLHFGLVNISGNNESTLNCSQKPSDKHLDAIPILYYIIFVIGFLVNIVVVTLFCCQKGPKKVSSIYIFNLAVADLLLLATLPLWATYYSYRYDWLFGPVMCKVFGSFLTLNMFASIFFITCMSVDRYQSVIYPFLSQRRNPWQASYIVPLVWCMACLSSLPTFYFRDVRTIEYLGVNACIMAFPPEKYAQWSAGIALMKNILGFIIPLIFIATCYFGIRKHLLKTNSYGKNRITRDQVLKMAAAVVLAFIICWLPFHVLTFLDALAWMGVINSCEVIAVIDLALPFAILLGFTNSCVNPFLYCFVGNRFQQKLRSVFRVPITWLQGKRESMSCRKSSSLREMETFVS
Sequence of human AT1R (P30556 whole entry): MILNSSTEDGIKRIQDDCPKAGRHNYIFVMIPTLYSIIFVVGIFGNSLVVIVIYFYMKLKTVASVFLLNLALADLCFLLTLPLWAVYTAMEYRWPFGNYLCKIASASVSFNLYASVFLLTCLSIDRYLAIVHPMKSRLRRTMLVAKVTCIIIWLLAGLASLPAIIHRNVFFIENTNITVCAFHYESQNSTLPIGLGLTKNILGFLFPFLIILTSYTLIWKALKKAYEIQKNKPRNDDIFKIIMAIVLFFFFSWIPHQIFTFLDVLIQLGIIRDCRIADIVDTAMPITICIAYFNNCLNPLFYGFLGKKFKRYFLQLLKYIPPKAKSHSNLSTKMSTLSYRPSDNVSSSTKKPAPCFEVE

SMILES | inhibition at 1 µM (human AT1R) [%] | inhibition at 10 µM (human AT1R) [%] | pIC50 (human AT2R fused to Cb23) | pIC50 (human AT1R)
CC(C)Cc1cc(F)c(-c2nn[nH]n2)c(N2CC3CN(Cc4cccnn4)CC3C2)c1 (stereo not drawn) [Compound A-233, 5-[3-fluoro-5-isobutyl-2-(2H-tetrazol-5-yl)phenyl]-2-(pyridazin-3-ylmethyl)-1,3,3a,4,6,6a-hexahydropyrrolo[3,4-c]pyrrole] | < 30 | < 30 | 5.88 | –
Cc1ccnc(CN2CCN(c3cc(CC(C)C)cc(F)c3-c3nn[nH]n3)CC2)c1 [Compound A-204, 1-[3-fluoro-5-isobutyl-2-(2H-tetrazol-5-yl)phen-yl]-4-[(4-methyl-2-pyridyl)methyl]-piperazine] | < 30 | < 30 | 6.67 | –
COc1cccnc1CN1CCN(c2cc(CC(C)C)cc(F)c2-c2nn[nH]n2)CC1 [Compound A-198, 1-[3-fluoro-5-isobutyl-2-(2H-tetrazol-5-yl)phen-yl]-4-[(3-methoxy-2-pyridyl)meth-yl]piperazine] | < 30 | < 30 | 5.74 | –
CC(C)Cc1cc(F)c(-c2nn[nH]n2)c(N2CCN(Cc3cc(C(F)(F)F)ccn3)CC2)c1 [Compound A-202, 1-[3-fluoro-5-isobutyl-2-(2H-tetrazol-5-yl)phenyl]-4-[[4-(trifluoromethyl)-2-pyridyl]methyl]piperazine] | < 30 | < 30 | 6.08 | –
COc1ccnc(CN2CCN(c3cc(CC(C)C)cc(F)c3-c3nn[nH]n3)CC2)c1 [Compound A-199, 1-[3-fluoro-5-isobutyl-2-(2H-tetrazol-5-yl)phen-yl]-4-[(4-methoxy-2-pyridyl)methyl]-piperazine] | < 30 | < 30 | 6.75 | –
CC(C)Cc1ccc(-c2nn[nH]n2)c(N2CCN(Cc3cncn3C)CC2)c1 [Compound A-105, 1-[5-isobutyl-2-(2H-tetrazol-5-yl)phenyl]-4-[(3-methylimidazol-4-yl)methyl]piperazine] | < 30 | < 30 | 5.70 | –
CC(C)Cc1cc(F)c(-c2nn[nH]n2)c(N2C[C@H](C)N(Cc3cccnn3)[C@@H](C)C2)c1 [Compound A-187, 3-[[(2S,6S)-4-[3-fluoro-5-isobutyl-2-(2H-tetrazol-5-yl)-phenyl]-2,6-dimeth-yl-piperazin-1-yl]-methyl]pyridazine] | < 30 | < 30 | 8.14 | –
CC(C)Cc1cc(F)c(-c2nn[nH]n2)c(N2CCCN(Cc3cccnn3)CC2)c1 [Compound A-231, 1-[3-fluoro-5-isobutyl-2-(2H-tetrazol-5-yl)phenyl]-4-(pyridazin-3-ylmethyl)-1,4-diazepane] | < 30 | 30 to 50 | 6.43 | 4.72
CC(C)Cc1cc(F)c(-c2nn[nH]n2)c(N2CCN(Cc3cccnn3)CC2C)c1 (stereo not drawn) [Compound A-180, 3-[[4-[3-fluoro-5-isobutyl-2-(2H-tetrazol-5-yl)phenyl]-3-methyl-piperazin-1-yl]methyl]pyridazine] | < 30 | < 30 | 8.40 | –
c1ccc2sc(CN3CCN(c4nc(C5CC5)cnc4-c4nn[nH]n4)CC3)nc2c1 [Compound A-146, 2-[[4-[6-cycloprop-yl-3-(2H-tetrazol-5-yl)pyrazin-2-yl]-piperazin-1-yl]-methyl]-1,3-benzo-thiazole] | < 30 | < 30 | 5.01 | –

Continued, values first:

inhibition at 1 µM (human AT1R) [%] | inhibition at 10 µM (human AT1R) [%] | pIC50 (human AT2R fused to Cb23) | pIC50 (human AT1R) | SMILES
< 30 | < 30 | 5.37 | – | Cc1cccc2nc(CN3CCN(c4cc(CC(C)C)ccc4-c4nn[nH]n4)CC3)cc(=O)n12 [Compound A-73, 2-[[4-[5-isobutyl-2-(2H-tetrazol-5-yl)-phenyl]piperazin-1-yl]methyl]-6-methyl-pyrido[1,2-a]pyrimidin-4-one-]
< 30 | > 50 | 6.80 | 4.94 | CCCN(C(=O)c1cccs1)c1ccc2nc(CC)n(CC3CCN(c4ccccc4-c4nn[nH]n4)CC3)c(=O)c2c1 [Compound A-243, N-[2-ethyl-4-oxo-3-[[1-[2-(2H-tetrazol-5-yl)phen-yl]-4-piperidyl]-methyl]quinazolin-6-yl]-N-propyl-thiophene-2-carbox-amide]
< 30 | 30 to 50 | 5.05 | 4.74 | COc1cc(F)c(-c2nn[nH]n2)c(N2CCN(Cc3nc4ccccc4s3)CC2)c1 [Compound A-116, 2-[[4-[3-fluoro-5-methoxy-2-(2H-tetrazol-5-yl)phen-yl]piperazin-1-yl]-methyl]-1,3-benzo-thiazole]
< 30 | < 30 | 6.31 | 4.38 | CC(C)=Cc1ccc(-c2nn[nH]n2)c(N2CCN(Cc3nc4ccccc4n3C)CC2)c1 [Compound A-21, 1-methyl-2-[[4-[5-(2-methylprop-1-enyl)-2-(2H-tetrazol-5-yl)phen-yl]piperazin-1-yl]-methyl]benzimid-azole]
< 30 | 30 to 50 | 5.82 | 4.91 | CC(C)Cc1ccc(-c2nn[nH]n2)c(N2CCN(Cc3nc4ccccc4c(=O)n3C)CC2)c1 [Compound A-78, 2-[[4-[5-isobutyl-2-(2H-tetrazol-5-yl)-phenyl]piperazin-1-yl]methyl]-3-methyl-quinazolin-4-one]
< 30 | < 30 | 6.80 | – | c1ccc2sc(CN3CCN(c4cc(C5CC5)cc(C5CC5)c4-c4nn[nH]n4)CC3)nc2c1 [Compound A-129, 2-[[4-[3,5-dicyclo-propyl-2-(2H-tetrazol-5-yl)phen-yl]piperazin-1-yl]-methyl]-1,3-benzo-thiazole]
< 30 | < 30 | 5.48 | – | CC(C)Cc1cc(N2CCN(Cc3cccnn3)CC2)c(-c2nn[nH]n2)cc1F [Compound A-163, 3-[[4-[4-fluoro-5-isobutyl-2-(2H-tetrazol-5-yl)phen-yl]piperazin-1-yl]-methyl]pyridazine]
< 30 | < 30 | 6.52 | – | CC(C)Cc1cc(F)c(-c2nn[nH]n2)c(N2CCN(C(=O)c3ccccn3)CC2)c1 [Compound A-215, [4-[3-fluoro-5-isobutyl-2-(2H-tetrazol-5-yl)phen-yl]piperazin-1-yl]-(2-pyridyl)meth-anone]
< 30 | – | 4.98 | 4.54 | CC(C)Oc1ccc(-c2nn[nH]n2)c(CN2CCN(c3nc4ccccc4s3)CC2)c1 [Compound A-50, 2-[4-[[5-isoprop-oxy-2-(2H-tetrazol-5-yl)phenyl]meth-yl]piperazin-1-yl]-1,3-benzothiazole]
< 30 | 30 to 50 | 5.60 | 4.78 | CCS(=O)(=O)NC(=O)c1ccc(OC2CC2)cc1N1CCN(Cc2nc3ccccc3s2)CC1 [Compound A-41, 2-[4-(1,3-benzothiazol-2-ylmethyl)piperazin-1-yl]-4-(cyclopropoxy)-N-ethylsulfonyl-benzamide]
< 30 | < 30 | 5.54 | – | CC(C)Oc1cc(C2CC2)c(-c2nn[nH]n2)c(N2CCN(Cc3nc4ccccc4c(=O)[nH]3)CC2)c1 [Compound A-152]
